Test results: patent publication US20250101062A1, “ANTIMICROBIAL PEPTIDES” (Board of Regents of the University of Nebraska, priority 2023, published 2025)
≈ marks a conversion by molar mass, not a printed value. Where no end group is shown, it is not given here.

What was measured:
[1] = system: S. epidermidis 1457; assay: microbe, parasite or virus in culture; format: cell-based, Staphylococcus epidermidis; details: Staphylococcus epidermidis, MHB, Table 8, read-out: Antimicrobial activity (MIC) S. epidermidis 1457
How it was run: (§1)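 Peptides twofold serially diluted against exponential-phase resistant clinical isolates at ~10^5 CFU/mL in MHB (also diluted MHB, TSB or LB in one protocol), CLSI-based broth microdilution. Incubated overnight at 37° C., OD 600 nm read; MIC taken as lowest concentration without growth, reported as ranges.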

[2] = Effect of MHB dilution on antibacterial activity of a panel of antibiotics; format: cell-based; details: MHB from 100 to 12.5%
[3] = system: E. coli E423-17; format: cell-based, Escherichia coli; details: MHB 100%
[4] = target: T1, pepsin (Sus scrofa, UniProt P00791); format: in vitro ADME, mammalian
T1 construct: purchased Thermo Fisher Scientific
T1 sequence (P00791 60-385): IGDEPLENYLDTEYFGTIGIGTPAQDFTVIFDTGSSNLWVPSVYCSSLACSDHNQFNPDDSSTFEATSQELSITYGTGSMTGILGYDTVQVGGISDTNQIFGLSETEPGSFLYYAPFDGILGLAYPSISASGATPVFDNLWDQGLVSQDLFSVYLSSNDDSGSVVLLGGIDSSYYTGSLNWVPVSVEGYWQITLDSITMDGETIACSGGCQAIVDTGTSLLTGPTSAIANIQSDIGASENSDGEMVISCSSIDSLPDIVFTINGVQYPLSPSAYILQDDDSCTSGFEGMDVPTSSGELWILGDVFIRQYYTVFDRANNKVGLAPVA
Description: (§2) A solution of peptide/protease (40:1 molar ratio) was made in phosphate-buffered saline (PBS; pH 7.1, Gibco, NY) and incubated at 37° C. for 1 hour. As controls, peptides without proteases were also incubated in the same manner. Then, aliquots of 10 μL were transferred to a 96-well polystyrene microplate and mixed with the exponential-phase MRSA USA300 culture as performed in the antibacterial activity assays above.

[5] = system: A. baumannii B28-16; format: cell-based, Acinetobacter baumannii; details: B28-16
How it was run: as §1

[6] = target: T2, chymotrypsin (Bos taurus, UniProt P00766); format: in vitro ADME, mammalian
T2 construct: purchased Thermo Fisher Scientific
Description: as §2

[7] = system: S. aureus USA300 LAC; assay: Scanning electron microscopy; format: cell-based, Staphylococcus aureus; details: 2×MIC, 30 minutes
Description: The exponential-phase S. aureus USA300 LAC was treated with a 2×MIC of LL-37mini for 30 minutes. Samples were washed three times with 1×PBS and fixed with 2% paraformaldehyde and 2% glutaraldehyde in 0.1 M PBS. Next, the samples were washed with Sorensen's buffer and postfixed in 1% osmium tetroxide in water for 30 minutes. All samples were then washed in Sorensen's buffer and dehydrated through a graded ethanol series (50, 70, 90, 95, and 100% with ×3 changes). Subsequently, samples were placed in […] 100% for 10 minutes with three changes and left in HMDS in open dishes in the fume hood overnight to allow the HMDS to evaporate. The following day, the samples were mounted on 25 mm aluminum SEM stubs with carbon adhesive tabs. Silver paste was placed around the edges of the samples. Samples were sputter coated with 50 nm of gold/palladium in a Hummer VI sputter coater (Anatech Ltd., Battle Creek, MI) and examined in an FEI Quanta 200 SEM at the UNMC Electron Microscopy Core Facility.

[8] = system: E. coli E423-17; assay: Membrane permeabilization (propidium iodide); format: cell-based, Escherichia coli; details: Example 1, 1×MIC
[9] = system: MRSA USA300; assay: Biofilm inhibition; format: cell-based, Staphylococcus aureus; details: 0.5 to 2×MIC, 24 h
Description: Biofilm Inhibition. MRSA USA300 (10^5 CFU/mL) was prepared from the exponential phase. […] Media were then pipetted out, and the wells were washed with 1×PBS to remove planktonic cells. Live cells in biofilms were quantitated by XTT as described above.

[10] = system: human keratinocyte HaCaT cells; assay: Cell viability assay (MTS); format: cell-based
Description: Human keratinocyte HaCaT cells were grown in DMEM/high glucose (Hyclone, UT) containing 10% fetal bovine serum (Mediatech, Corning, Manassas, VA). […] The mixture was incubated at 37° C. in 5% CO2 for 24 hours.
HepG2 cells were cultured in ATCC-formulated Eagle's Minimum Essential Medium with 10% FBS. A549 cells were grown in ATCC-formulated F-12K Medium containing 10% FBS.

CCCCCCCCCC(=O)N[C@@H](Cc1c[nH]c2ccccc12)C(=O)N[C@H](CC(N)=O)C(=O)N[C@@H](CC(=O)O)C(=O)N[C@@H]1C(=O)NCC(=O)N[C@@H](CCCN)C(=O)N[C@@H](CC(=O)O)C(=O)N[C@H](C)C(=O)N[C@@H](CC(=O)O)C(=O)NCC(=O)N[C@H](CO)C(=O)N[C@@H]([C@H](C)CC(=O)O)C(=O)N[C@@H](CC(=O)c2ccccc2N)C(=O)O[C@@H]1C [Daptomycin]
MIC [1]: 0.5 to 1 µM (≈ 0.81 to 1.62 µg/mL) | change in MIC with dilution of MHB [2]: essentially no changes

CC[C@H](C)[C@H](NC(=O)[C@H](CCCCN)NC(=O)[C@H](CCC(=O)O)NC(=O)[C@H](CCCCN)NC(=O)[C@H](CO)NC(=O)[C@H](CCCCN)NC(=O)[C@H](CCCNC(=N)N)NC(=O)[C@H](Cc1ccccc1)NC(=O)[C@H](Cc1ccccc1)NC(=O)[C@H](CC(=O)O)NC(=O)CNC(=O)[C@H](CC(C)C)NC(=O)[C@@H](N)CC(C)C)C(=O)NCC(=O)N[C@@H](CCCCN)C(=O)N[C@@H](CCC(=O)O)C(=O)N[C@@H](Cc1ccccc1)C(=O)N[C@@H](CCCCN)C(=O)N[C@@H](CCCNC(=N)N)C(=O)N[C@H](C(=O)N[C@H](C(=O)N[C@@H](CCC(N)=O)C(=O)N[C@@H](CCCNC(=N)N)C(=O)N[C@H](C(=O)N[C@@H](CCCCN)C(=O)N[C@@H](CC(=O)O)C(=O)N[C@@H](Cc1ccccc1)C(=O)N[C@@H](CC(C)C)C(=O)N[C@@H](CCCNC(=N)N)C(=O)N[C@@H](CC(N)=O)C(=O)N[C@@H](CC(C)C)C(=O)N[C@H](C(=O)N1CCC[C@H]1C(=O)N[C@@H](CCCNC(=N)N)C(=O)N[C@H](C(=O)N[C@@H](CCC(=O)O)C(=O)N[C@@H](CO)C(=O)O)[C@@H](C)O)C(C)C)[C@@H](C)CC)C(C)C)[C@@H](C)CC [LL-37]
Antimicrobial activity (MIC) [3]: active

RRWWRWWR-NH2 [W543]
activity after protease incubation [4]: retained antibacterial activity | Activity (MIC) A. baumannii [5]: >32 µM | activity after protease incubation [6]: started to lose activity | cell morphology by SEM [7]: cell damages were evident | membrane permeabilization [8]: 30 minute delay in membrane permeabilization | inhibition of biofilm formation [9]: more effective than daptomycin | toxicity to human HaCaT skin cells [10]: least toxic
